From ChEMBL document CHEMBL1155385, “The identification of a selective dopamine D2 partial agonist, D3 antagonist displaying high levels of brain exposure” (Bioorg Med Chem Lett, 2010)
≈ marks a conversion by molar mass, not a printed value.

Assays:
D(2) dopamine receptor = D(2) dopamine receptor (Homo sapiens, UniProt P14416); assay: Partial agonistic activity at human dopamine D2 receptor expressed in CHO cells by assay [35S]GTPgamma assay with scintillation proximity affinity assay; format: functional, cell-based
D(3) dopamine receptor = D(3) dopamine receptor (Homo sapiens, UniProt P35462); assay: Antagonist activity at human dopamine D3 receptor expressed in CHO cells assessed as inhibition of quinperol-induced [35S]GTPgamma binding by scintillation proximity affinity assay; format: functional, cell-based
[1] = Solubility of the compound; format: physicochemical
[2] = Lipophilicity, log D at pH 7.4; format: physicochemical; conditions: buffer
Liver microsomes = assay: Intrinsic clearance in rat liver microsomes; format: ADME, Microsome
[3] = Intrinsic clearance in human liver microsomes; format: ADME, Microsome
Cytochrome P450 2D6 = Cytochrome P450 2D6 (Homo sapiens, UniProt P10635); assay: Inhibition of human recombinant CYP2D6 by spectrofluorimetry; format: ADME
[4] = biological target: T1, 5-hydroxytryptamine receptor 1A (Homo sapiens, UniProt P08908); assay: Binding affinity to 5HT1A receptor
T1 sequence (P08908 whole entry): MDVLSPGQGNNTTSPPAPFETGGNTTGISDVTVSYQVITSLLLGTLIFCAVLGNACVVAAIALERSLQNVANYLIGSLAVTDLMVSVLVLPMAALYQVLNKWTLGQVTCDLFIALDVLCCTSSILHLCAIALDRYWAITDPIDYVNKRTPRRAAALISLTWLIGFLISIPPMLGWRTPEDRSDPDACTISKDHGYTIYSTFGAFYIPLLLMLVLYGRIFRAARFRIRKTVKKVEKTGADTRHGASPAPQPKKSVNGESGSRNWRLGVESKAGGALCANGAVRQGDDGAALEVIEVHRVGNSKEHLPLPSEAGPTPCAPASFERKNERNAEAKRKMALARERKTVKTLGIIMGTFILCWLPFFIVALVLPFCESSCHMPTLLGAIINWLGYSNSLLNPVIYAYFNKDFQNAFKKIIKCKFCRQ

[5] = biological target: 5-hydroxytryptamine receptor 1D (Homo sapiens, UniProt P28221); assay: Binding affinity to 5HT1D receptor
[6] = biological target: 5-hydroxytryptamine receptor 2A (Homo sapiens, UniProt P28223); assay: Activity at 5HT2A receptor
[7] = biological target: T2, Alpha-1B adrenergic receptor (Homo sapiens, UniProt P35368); assay: Activity at Alpha-1B adrenergic receptor
T2 sequence (P35368 whole entry): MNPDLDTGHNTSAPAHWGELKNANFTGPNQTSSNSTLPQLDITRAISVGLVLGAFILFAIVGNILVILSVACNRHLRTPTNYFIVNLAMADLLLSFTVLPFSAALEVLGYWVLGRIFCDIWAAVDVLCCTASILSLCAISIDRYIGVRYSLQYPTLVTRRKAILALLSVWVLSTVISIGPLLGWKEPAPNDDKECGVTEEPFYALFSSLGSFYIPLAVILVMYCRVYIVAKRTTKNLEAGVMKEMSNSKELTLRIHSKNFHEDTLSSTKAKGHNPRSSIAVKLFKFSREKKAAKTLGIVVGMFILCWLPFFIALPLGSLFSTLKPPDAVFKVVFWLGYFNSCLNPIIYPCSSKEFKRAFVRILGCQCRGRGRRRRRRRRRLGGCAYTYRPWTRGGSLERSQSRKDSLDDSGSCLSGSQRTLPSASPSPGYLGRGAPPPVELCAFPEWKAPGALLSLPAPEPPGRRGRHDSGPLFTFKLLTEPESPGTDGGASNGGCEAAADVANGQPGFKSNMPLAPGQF

Histamine H1 receptor = Histamine H1 receptor (Homo sapiens, UniProt P35367); assay: Activity at histamine H1 receptor
[8] = biological target: Voltage-gated inwardly rectifying potassium channel KCNH2 (Homo sapiens, UniProt Q12809); assay: Displacement of [3H]dofetilide from human ERG by scintillation proximity assay
Sequence of Voltage-gated inwardly rectifying potassium channel KCNH2 (Q12809 whole entry): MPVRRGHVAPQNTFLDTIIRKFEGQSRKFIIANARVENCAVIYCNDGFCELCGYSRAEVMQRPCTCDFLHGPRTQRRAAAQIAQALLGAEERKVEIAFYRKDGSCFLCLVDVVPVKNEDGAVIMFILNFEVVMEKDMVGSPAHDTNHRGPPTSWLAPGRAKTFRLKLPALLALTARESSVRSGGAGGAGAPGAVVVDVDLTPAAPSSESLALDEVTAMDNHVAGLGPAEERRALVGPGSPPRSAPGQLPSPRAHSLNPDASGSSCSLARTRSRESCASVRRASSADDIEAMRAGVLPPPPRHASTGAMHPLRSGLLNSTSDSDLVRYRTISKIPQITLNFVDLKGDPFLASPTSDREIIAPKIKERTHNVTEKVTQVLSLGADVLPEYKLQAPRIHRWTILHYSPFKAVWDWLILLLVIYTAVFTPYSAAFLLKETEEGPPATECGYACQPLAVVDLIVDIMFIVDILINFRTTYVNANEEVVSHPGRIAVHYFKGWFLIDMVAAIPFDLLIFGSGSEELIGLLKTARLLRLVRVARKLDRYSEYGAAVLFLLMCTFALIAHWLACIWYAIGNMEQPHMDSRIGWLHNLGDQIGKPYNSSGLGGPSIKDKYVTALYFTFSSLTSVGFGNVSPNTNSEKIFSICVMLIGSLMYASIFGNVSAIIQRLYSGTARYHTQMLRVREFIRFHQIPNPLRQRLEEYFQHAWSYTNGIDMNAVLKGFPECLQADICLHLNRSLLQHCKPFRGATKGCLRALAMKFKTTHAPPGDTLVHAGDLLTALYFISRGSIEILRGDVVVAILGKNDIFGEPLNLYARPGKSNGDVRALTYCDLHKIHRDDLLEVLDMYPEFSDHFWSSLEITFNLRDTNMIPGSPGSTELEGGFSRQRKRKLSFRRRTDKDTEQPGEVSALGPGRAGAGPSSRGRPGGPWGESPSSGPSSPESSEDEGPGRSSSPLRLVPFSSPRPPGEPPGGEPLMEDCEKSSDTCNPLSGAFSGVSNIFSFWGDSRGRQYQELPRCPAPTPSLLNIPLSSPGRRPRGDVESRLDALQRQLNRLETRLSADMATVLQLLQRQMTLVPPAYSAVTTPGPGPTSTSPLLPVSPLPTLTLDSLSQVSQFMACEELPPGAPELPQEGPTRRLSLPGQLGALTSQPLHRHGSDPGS

Sequence of D(2) dopamine receptor (P14416 whole entry): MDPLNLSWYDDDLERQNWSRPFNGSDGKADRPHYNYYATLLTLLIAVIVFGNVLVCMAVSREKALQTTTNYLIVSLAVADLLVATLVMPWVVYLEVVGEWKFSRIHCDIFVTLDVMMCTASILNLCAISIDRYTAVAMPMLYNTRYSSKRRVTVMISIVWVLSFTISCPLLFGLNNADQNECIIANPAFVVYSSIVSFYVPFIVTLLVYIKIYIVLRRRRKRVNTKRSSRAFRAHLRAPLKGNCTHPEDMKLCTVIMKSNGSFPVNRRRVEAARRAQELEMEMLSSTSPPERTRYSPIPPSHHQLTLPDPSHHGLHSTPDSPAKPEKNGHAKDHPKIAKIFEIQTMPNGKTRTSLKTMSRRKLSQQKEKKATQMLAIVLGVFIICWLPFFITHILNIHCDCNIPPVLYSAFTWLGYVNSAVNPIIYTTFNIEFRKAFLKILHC
Sequence of D(3) dopamine receptor (P35462 whole entry): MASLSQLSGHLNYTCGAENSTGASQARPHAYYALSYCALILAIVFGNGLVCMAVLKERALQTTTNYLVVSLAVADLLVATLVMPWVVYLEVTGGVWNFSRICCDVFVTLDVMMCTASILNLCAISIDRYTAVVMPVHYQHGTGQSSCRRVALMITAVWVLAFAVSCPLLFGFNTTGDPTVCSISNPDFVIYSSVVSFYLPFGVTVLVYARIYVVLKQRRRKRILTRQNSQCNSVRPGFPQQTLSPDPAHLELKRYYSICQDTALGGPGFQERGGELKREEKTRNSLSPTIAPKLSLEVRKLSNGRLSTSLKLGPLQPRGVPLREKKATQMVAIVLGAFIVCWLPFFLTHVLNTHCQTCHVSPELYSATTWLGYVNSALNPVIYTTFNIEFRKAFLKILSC
Sequence of Cytochrome P450 2D6 (P10635 whole entry): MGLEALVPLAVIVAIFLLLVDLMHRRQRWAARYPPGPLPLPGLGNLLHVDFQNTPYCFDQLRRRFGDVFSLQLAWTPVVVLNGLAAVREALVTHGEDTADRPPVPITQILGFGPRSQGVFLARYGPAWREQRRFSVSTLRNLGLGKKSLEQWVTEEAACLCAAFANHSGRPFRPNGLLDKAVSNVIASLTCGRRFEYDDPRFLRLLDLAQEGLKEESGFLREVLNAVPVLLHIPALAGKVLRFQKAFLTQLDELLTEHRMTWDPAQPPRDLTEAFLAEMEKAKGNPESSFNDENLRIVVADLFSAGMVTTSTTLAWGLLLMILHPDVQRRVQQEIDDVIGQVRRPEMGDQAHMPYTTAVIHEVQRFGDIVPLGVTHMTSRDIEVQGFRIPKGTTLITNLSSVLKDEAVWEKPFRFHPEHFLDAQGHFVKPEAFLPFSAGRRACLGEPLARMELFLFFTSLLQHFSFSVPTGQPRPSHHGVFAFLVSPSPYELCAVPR
Sequence of 5-hydroxytryptamine receptor 2A (P28223 whole entry): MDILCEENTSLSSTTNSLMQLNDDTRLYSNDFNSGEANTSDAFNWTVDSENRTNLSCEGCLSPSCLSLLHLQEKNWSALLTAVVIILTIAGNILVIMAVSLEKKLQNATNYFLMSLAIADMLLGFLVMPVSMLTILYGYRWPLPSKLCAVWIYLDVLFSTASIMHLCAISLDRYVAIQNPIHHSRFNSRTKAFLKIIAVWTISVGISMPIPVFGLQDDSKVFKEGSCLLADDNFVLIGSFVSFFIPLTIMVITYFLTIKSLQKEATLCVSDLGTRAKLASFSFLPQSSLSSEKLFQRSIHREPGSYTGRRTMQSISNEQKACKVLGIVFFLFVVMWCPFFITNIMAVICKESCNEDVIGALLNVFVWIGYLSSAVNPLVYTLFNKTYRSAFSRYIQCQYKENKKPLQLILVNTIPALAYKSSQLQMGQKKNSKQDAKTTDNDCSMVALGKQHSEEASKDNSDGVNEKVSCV
Sequence of Histamine H1 receptor (P35367 whole entry): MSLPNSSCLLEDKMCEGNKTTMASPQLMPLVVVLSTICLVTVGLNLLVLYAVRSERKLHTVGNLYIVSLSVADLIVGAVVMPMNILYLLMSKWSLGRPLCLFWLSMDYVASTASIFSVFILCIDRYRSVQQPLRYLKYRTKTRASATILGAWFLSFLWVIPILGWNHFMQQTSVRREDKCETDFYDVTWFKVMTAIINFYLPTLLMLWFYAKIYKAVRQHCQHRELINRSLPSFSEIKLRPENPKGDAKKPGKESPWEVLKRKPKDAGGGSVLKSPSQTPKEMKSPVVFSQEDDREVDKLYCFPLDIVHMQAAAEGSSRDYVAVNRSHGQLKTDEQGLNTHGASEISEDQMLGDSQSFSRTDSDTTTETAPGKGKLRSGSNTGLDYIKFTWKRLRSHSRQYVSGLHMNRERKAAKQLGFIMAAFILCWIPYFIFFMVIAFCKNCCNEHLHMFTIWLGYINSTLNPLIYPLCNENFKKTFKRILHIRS
Sequence of 5-hydroxytryptamine receptor 1D (P28221 whole entry): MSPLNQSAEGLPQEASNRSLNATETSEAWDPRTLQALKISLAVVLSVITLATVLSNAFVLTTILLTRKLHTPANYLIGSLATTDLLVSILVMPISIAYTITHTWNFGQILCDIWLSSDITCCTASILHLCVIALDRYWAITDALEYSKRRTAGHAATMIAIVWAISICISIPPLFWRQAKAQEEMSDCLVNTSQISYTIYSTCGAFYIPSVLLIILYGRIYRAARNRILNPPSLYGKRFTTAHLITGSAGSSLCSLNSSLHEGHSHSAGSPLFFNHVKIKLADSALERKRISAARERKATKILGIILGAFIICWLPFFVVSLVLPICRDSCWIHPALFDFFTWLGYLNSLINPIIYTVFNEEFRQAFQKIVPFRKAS

| Compound | EC50 (D(2) dopamine receptor) [nM] | Ki (D(2) dopamine receptor) [nM] | EC50 (D(3) dopamine receptor) [nM] | Ki (D(3) dopamine receptor) [nM] | also measured |
| --- | --- | --- | --- | --- | --- |
| O=C1N(CC2CCCCN2)CCN1c1cccnc1 (stereo not drawn) | 501 | > 631 | > 3160 | > 631 | – |
| Cc1ccc(N2CCN(CCN3CCCCCC3)C2=O)cc1 | > 7940 | 50.1 | > 3160 | 126 | – |
| O=C1N(CCN2CCCCCC2)CCN1c1cc(Cl)cc(Cl)c1 | > 7940 | 0.631 | > 3160 | 1.58 | – |
| Cc1cccc(N2CCN(CCN3CCCCCC3)C2=O)c1 | 10 | 25.1 | > 3160 | 79.4 | – |
| O=C1N(CCN2CCCCCC2)CCN1c1cccc(C(F)(F)F)c1 | > 7940 | 1.58 | > 3160 | 1 | – |
| O=C1N(CCN2CCCCCC2)CCN1c1ccccc1 | 0.631 | 7.94 | > 3160 | 63.1 | – |
| O=C1N(CCN2CCCCCC2)CCN1c1cccnc1 | 7.94 | 100 | > 3160 | 79.4 | – |
| O=S1(=O)N(CCN2CCCCCC2)CCN1c1cccc(Cl)c1 | 126 | 200 | > 3160 | 316 | – |
| O=C1N(CC2CCNCC2)CCN1c1cccc(Cl)c1 | > 7940 | > 631 | > 3160 | > 631 | – |
| O=C1N(CC2CCCCN2)CCN1c1cccc(C(F)(F)F)c1 (stereo not drawn) | > 7940 | 20 | > 3160 | 0.251 | – |
| O=c1n(CCCN2CCCCCC2)ccn1-c1cccc(Cl)c1 | > 7940 | 631 | > 3160 | 126 | – |

Second part, led by results:

| EC50 (D(2) dopamine receptor) [nM] | Ki (D(2) dopamine receptor) [nM] | EC50 (D(3) dopamine receptor) [nM] | Ki (D(3) dopamine receptor) [nM] | Compound | also measured |
| --- | --- | --- | --- | --- | --- |
| 1 | 10 | > 3160 | 5.01 | O=C1N(CCN2CCCCCC2)CCN1c1cccc(Cl)c1 | – |
| 2.51 | 15.8 | > 3160 | 3.98 | CN1CCCCC1CN1CCN(c2cccc(Cl)c2)C1=O (stereo not drawn) | – |
| 50.1 | 100 | > 3160 | 79.4 | O=C1N(CCN2CCCCCC2)CCN1c1ccc(Cl)cc1 | – |
| > 7940 | > 631 | > 3160 | > 631 | Cc1ccccc1N1CCN(CCN2CCCCCC2)C1=O | – |
| > 7940 | 39.8 | > 3160 | 50.1 | COc1cccc(N2CCN(CCN3CCCCCC3)C2=O)c1 | – |
| 0.794 | 2.51 | > 3160 | 15.8 | O=C1N(CCN2CCCCCC2)CCN1c1cccc(F)c1 | – |
| 10 | 63.1 | > 3160 | 251 | O=C1N(CCN2CCCCCC2)CCN1c1ccc(F)cc1 | – |
| 10 | 15.8 | > 3160 | 25.1 | O=C1N(CCN2CCCCCC2)CCN1c1ccc(F)c(Cl)c1 | – |
| > 3160 | 631 | > 3160 | > 631 | O=C1N(CCN2CCCCCC2)CCN1c1ccncc1 | – |
| 126 | 398 | > 3160 | > 631 | O=c1n(CCN2CCCCCC2)ccn1-c1cccc(Cl)c1 | – |
| 0.631 | 79.4 | > 3160 | 3.98 | O=C1N(CC2CCCCN2)CCN1c1cccc(Cl)c1 (stereo not drawn) | solubility [1]: 148 µg/mL (≈ 504 µM); logD [2]: 1.24; CL (Liver microsomes): 23.7 mL/min/g; CLint scaled [3]: 3.4 mL/min/g; IC50 (Cytochrome P450 2D6): 1000 nM; EC50 [4]: 794 nM; EC50 [5]: 501 nM; Ki [6]: > 1580 nM; Ki [7]: > 251 nM; Ki (Histamine H1 receptor): > 2510 nM; IC50 [8]: 7940 nM |
| > 7940 | > 631 | > 3160 | > 631 | O=C1N(CC2CCCNC2)CCN1c1cccc(Cl)c1 (stereo not drawn) | – |
